Data reported in patent US6495715B2, “Calcium channel blockers” (Warner-Lambert Company, priority 1997, dated 2002).
Where a name gives a salt, the structure may show the parent alone.

What was measured:
N-type Ca2+ channel = target: T1, N-type Ca2+ channel (Homo sapiens, UniProt Q00975); assay: Measurement of N-type Ca2+ channel blocking potencies in IMR-32 cells using the fluorescent Ca2+ indicator Indo-1; type: cell-based; conditions: for IC50: K+-stimulated Ca2+ flux, 5 μM nitrendipine to block L-type channels; for inhibition at 1 µM: 1 μM compound, read-out: IMR 32 % of Blockade @ 1 μM; for inhibition at 1 µM / inhibition at 10 µM: 5 μM nitrendipine; for inhibition at 10 µM: 10 μM compound, read-out: IMR 32 % of Blockade @ 10 μM
T1 construct: host or cells: IMR-32 cells, differentiated with dibutyryl cAMP and bromodeoxyuridine
Protocol: Measurement of N-type Ca^2+ Channel Blocking Potencies of Compounds in IMR-32 Cells Using the Fluorescent Ca^2+Indicator Indo-1
IMR-32 cells are a human tumoral cell line of neural origin. […] Calcium flux into these cells may be induced by stimulation with elevated potassium concentrations. The L-channel component of calcium flux may be blocked by adding 5 μM nitrendipine. The remaining component of calcium entry into the IMR-32 cells is due to calcium flux through N-type calcium channels. Intracellular calcium concentrations are measured using the fluorescent calcium indicator Indo-1. The effect of drug concentration on calcium uptake is studied.
The IMR-32 cell line was obtained from the American Type Culture Collection (Rockville, Md.). Cells were grown in Eagle's Minimum Essential Medium with Earle's salts supplemented with 10% fetal bovine serum, 2 mM L-Gln and antibiotic/antimycotic mixture (Gibco). […] After 7 to 13 days of differentiation, cells were detached using 0.5 mM EDTA and loaded with 5 μM Indo-1 acetoxymethyl ester (Molecular Probes, Eugene, Oreg.) at 30° C. for 45 minutes. Loaded cells were washed twice, resuspended (˜10^7 cells/mL) in assay buffer (10 mM HEPES/Tris pH 7.4 in Hank's Balanced Salt Solution without bicarbonate or phenol red containing 0.5% bovine serum albumin) and kept on ice until use. Fluorescence measurements were carried out in a Photon Technology International (PTI, South Brunswick, N.J.) Model RF-F3004 spectrofluorometer with dual emission monochromators using excitation at […] and emission at 400 and 490 nm. The instrument was equipped with a thermostated cuvette holder with stirring capabilities as well as with a computer-controlled pump which allowed for reagent addition during measurement. Instrument control and data collection was done by PTI's OSCAR software running on an IBM compatible computer. Different concentrations of the test compounds (60 μL in dimethyl sulfoxide) were added to 5.94 mL of assay buffer containing approximately 3×10^6 loaded cells, and 5 μM Nitrendipine (in […] EtOH) to block L-type Ca^2+ channels. Samples were incubated for 10 minutes at 30° C. and then aliquoted into three 10×10 mm disposable acrylic cuvettes. Emission signals at 400 and 490 nm were acquired from each cuvette at 30° C. for 50 seconds. At 20 seconds after the start of reading, cells were depolarized by the addition of 160 μL of stimulation solution (1 M KCl, 68 mM CaCl2) to the cuvette via the computer-controlled pump. Ratio of dual emission signals (400 nm/490 nm), which is proportional to intracellular Ca^2+ concentration, was plotted against time, and the difference between maximal response after stimulation and basal value (before stimulation) was determined. Values obtained in this way were plotted as a function of drug concentration. IC50 values of test compounds were calculated by fitting a four-parameter logistic function to the data using the least squares method.

DBA/2 mice = assay: Audiogenic seizure (anticonvulsant) test in DBA/2 mice; type: in vivo; conditions: Mus musculus, intravenous, sound-induced tonic seizures, tested 15 or 45 minutes after injection, read-out: DBA/2 mice % Protection
Protocol: In vivo Biological Protocol:
A compound of the present invention was dissolved in water using 10% (weight/volume) Emulphor (GAF Corp., Wayne, N.J.) surfactant. Substances were administered by intravenous injection into the retro-orbital venous sinus. All testing was performed 15 minutes or 45 minutes after drug injection. All the male mice, 3-4 weeks old were obtained from Jackson Laboratories Bar Harbour, Me. Immediately before anticonvulsant testing, mice were placed upon a wire mesh, 4 inches square suspended from a steel rod. The square was slowly inverted through 180 degrees and mice observed for 30 seconds. Any mouse falling from the wire mesh was scored as ataxia.
Mice were placed into an enclosed acrylic plastic chamber (21 cm height, approximately 30 cm diameter) with a high-frequency speaker (4 cm diameter) in the center of the top lid. An audio signal generator (Protek model B-810) was used to produce a continuous sinusoidal tone that was swept linearly in frequency between 8 kHz and 16 kHz once each 10 msec. The average sound pressure level (SPL) during stimulation was approximately 100 dB at the floor of the chamber. Mice were placed within the chamber and allowed to acclimatize for 1 minute. DBA/2 mice in the vehicle-treated group responded to the sound stimulus (applied until tonic extension occurred, or for a maximum of 60 sec) with a characteristic seizure sequence consisting of wild running followed by clonic seizures, and later by tonic extension, and finally by respiratory arrest and death in 80% or more of the mice. In vehicle-treated mice, the entire sequence of seizures to respiratory arrest lasts approximately 15-20 seconds.
The incidence of all the seizure phases in the drug-treated and vehicle-treated mice was recorded, and the occurrence of tonic seizures were used for calculating anticonvulsant ED50 values by probit analysis. Mice were used only once for testing at each time and dose point.

T1 sequence (Q00975 whole entry): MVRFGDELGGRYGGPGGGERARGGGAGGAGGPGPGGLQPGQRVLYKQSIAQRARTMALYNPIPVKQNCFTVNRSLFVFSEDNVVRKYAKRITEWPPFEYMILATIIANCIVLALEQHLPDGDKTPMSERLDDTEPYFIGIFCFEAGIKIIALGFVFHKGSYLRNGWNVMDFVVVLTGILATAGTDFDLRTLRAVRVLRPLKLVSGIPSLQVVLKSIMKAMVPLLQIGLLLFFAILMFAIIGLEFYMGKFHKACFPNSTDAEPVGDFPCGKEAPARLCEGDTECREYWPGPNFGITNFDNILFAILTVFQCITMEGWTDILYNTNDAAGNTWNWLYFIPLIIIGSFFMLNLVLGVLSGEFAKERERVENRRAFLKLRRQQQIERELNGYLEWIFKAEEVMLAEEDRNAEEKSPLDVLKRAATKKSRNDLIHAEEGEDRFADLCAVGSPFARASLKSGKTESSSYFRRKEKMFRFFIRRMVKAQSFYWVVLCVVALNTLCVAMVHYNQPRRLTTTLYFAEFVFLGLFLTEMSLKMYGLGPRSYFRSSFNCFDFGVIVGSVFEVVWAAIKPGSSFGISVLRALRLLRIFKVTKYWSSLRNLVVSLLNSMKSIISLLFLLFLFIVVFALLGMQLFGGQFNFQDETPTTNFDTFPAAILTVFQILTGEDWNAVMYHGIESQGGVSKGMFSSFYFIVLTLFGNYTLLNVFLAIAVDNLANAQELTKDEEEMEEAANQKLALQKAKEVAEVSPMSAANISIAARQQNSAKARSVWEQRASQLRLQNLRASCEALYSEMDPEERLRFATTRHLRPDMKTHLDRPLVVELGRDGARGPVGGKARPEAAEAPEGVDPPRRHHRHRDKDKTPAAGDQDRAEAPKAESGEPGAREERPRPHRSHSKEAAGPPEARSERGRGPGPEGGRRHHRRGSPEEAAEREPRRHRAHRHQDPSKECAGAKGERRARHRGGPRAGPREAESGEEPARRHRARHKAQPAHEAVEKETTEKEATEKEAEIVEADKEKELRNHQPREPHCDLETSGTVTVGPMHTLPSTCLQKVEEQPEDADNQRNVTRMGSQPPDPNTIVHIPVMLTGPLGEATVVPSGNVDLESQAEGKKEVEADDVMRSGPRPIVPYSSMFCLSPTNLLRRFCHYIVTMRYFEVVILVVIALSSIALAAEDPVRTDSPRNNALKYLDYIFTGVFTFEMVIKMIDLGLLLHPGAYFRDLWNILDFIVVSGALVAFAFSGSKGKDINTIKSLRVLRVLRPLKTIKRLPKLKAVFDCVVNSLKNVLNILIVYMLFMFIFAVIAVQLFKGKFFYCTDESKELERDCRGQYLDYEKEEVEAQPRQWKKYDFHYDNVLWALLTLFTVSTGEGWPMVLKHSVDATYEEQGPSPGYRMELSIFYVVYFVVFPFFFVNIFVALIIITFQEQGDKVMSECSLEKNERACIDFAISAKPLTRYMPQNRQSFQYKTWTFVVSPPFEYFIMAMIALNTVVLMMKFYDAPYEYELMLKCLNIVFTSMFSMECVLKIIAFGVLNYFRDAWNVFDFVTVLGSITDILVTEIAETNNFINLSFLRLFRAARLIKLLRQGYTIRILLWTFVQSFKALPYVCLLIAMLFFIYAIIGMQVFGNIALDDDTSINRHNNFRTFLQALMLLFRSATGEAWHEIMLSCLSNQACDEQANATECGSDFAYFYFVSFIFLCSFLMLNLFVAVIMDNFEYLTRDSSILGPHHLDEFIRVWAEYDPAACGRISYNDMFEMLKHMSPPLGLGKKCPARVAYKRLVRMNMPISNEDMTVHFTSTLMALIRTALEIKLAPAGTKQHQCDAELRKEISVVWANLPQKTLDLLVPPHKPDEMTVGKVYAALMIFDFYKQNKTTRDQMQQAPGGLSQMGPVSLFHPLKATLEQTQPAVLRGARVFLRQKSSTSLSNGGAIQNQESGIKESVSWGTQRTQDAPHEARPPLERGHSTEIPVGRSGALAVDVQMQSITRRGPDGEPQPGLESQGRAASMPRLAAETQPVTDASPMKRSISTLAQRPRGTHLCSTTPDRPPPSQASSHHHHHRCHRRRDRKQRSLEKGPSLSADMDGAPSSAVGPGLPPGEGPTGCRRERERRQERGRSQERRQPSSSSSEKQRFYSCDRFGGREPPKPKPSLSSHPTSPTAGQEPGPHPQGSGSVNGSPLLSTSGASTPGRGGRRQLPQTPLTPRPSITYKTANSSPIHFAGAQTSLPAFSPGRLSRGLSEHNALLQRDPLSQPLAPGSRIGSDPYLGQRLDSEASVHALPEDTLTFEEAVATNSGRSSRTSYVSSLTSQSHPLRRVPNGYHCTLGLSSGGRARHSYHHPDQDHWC
T1 sequence (P54289 25-956 partner limits assumed): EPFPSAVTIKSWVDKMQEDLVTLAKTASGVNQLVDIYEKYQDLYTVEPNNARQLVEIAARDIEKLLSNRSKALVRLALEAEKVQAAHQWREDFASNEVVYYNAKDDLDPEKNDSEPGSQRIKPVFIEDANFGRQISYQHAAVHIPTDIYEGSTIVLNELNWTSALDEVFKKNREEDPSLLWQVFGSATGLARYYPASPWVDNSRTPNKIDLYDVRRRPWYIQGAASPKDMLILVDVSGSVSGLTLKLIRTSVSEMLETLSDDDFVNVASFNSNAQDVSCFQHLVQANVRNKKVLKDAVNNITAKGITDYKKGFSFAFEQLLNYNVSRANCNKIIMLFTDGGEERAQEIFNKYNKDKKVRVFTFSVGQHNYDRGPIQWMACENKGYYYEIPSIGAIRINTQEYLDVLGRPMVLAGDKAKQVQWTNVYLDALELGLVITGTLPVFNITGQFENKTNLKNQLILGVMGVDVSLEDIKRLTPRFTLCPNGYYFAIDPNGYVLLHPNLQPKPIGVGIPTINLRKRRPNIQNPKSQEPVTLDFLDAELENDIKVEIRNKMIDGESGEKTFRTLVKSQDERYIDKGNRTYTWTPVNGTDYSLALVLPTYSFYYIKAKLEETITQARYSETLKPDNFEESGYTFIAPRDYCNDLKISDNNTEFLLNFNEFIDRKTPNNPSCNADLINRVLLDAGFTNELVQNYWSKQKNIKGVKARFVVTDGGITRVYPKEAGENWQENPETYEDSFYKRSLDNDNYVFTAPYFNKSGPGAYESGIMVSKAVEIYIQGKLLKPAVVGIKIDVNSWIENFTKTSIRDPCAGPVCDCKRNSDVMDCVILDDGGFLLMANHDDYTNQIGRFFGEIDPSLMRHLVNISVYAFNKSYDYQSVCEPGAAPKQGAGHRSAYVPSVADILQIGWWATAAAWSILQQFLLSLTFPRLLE
T1 sequence (P54289 957-1103 partner limits assumed): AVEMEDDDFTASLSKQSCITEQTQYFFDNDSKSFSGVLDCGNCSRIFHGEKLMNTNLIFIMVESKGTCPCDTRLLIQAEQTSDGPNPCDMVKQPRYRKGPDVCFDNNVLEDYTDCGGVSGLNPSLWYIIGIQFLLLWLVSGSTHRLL
T1 sequence (Q02641 whole entry partner): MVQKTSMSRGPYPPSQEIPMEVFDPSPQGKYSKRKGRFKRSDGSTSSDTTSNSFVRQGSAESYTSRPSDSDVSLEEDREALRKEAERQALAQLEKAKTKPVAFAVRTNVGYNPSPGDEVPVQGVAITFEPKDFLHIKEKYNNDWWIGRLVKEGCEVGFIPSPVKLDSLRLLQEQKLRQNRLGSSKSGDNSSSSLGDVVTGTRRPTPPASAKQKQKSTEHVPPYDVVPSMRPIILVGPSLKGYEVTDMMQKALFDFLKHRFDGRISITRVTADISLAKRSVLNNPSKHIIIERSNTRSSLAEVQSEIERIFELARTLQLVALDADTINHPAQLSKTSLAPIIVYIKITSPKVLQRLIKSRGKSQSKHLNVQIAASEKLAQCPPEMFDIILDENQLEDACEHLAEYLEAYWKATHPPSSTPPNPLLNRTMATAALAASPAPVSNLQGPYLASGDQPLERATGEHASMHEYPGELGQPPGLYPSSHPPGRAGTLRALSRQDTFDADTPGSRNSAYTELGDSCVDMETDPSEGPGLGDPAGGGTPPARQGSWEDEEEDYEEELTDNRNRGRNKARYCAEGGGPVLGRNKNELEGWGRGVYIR

| melting point | IC50 (N-type Ca2+ channel) | SMILES | responders at 30 mg/kg (DBA/2 mice) | other results |
| --- | --- | --- | --- | --- |
| 125 to 126 °C |  | CC(C)=CCN(c1ccc(OCc2ccccc2)cc1)C1CCN(C(=O)[C@H](CC(C)C)NC(=O)N2CCCCCC2)CC1 (as salt: hydrochloride) [Example 5, (S)-Azepane-1-carboxylic acid (1-{4-[(4-benzyloxy-phenyl)-(3-methyl-but-2-enyl)-amino]-piperidine-1-carbonyl}-3-methyl-butyl)-amide hydrochloride salt] |  |  |
| 71 °C | 690 nM | CC(C)=CCN(CCNC(=O)[C@H](CC(C)C)NC(=O)N1CCCCCC1)c1ccc(OCc2ccccc2)cc1 [Example 3, (S)-Azepane-1-carboxylic acid (1-{2-[(4-benzyloxy-phenyl)-(3-methyl-but-2-enyl)-amino]-ethylcarbamoyl}-3-methyl-butyl)-amide] |  |  |
| 79 to 80 °C | 840 nM | CC(C)C[C@H](NC(=O)N1CCCCCC1)C(=O)NCCN(c1ccc(OCc2ccccc2)cc1)C1C=CCCC1 (stereo partly drawn) [Example 6, (S)-Azepane-1-carboxylic acid (1-{2-[(4-benzyloxy-phenyl)-cyclohex-2-enyl-amino]-ethylcarbamoyl}-3-methyl-butyl)-amide] |  |  |
|  | 2200 nM | CC(C)CCN(c1ccc(N)cc1)C1CCN(C(=O)[C@H](CC(C)C)NC(=O)N2CCCCCC2)CC1 [Example 35, (S)-Azepane-1-carboxylic acid (1-{4-[(4-amino-phenyl)-(3-methyl-butyl)-amino]-piperidine-1-carbonyl}-3-methyl-butyl)-amide] | 20% |  |
|  | 1800 nM | CC(C)CCN(c1ccc(NCCC(C)O)cc1)C1CCN(C(=O)[C@H](CC(C)C)NC(=O)N2CCCCCC2)CC1 (stereo partly drawn) [Example 38, (S)-Azepane-1-carboxylic acid (1-{4-[[4-(3-hydroxy-butylamino)-phenyl]-(3-methyl-butyl)-amino]-piperidine-1-carbonyl}-3-methyl-butyl)-amide] | 60% |  |
|  | 490 nM | CC(C)CCN(c1ccc(NCc2ccc(N(C)C)cc2)cc1)C1CCN(C(=O)[C@H](CC(C)C)NC(=O)N2CCCCCC2)CC1 [Example 41, (S)-Azepane-1-carboxylic acid (1-{4-[[4-(4-dimethylamino-benzylamino)-phenyl]-(3-methyl-butyl)-amino]-piperidine-1-carbonyl}-3-methyl-butyl)-amide] | 20% |  |
|  | 690 nM | CC(C)CCN(c1ccc(NCc2ccc(O)cc2)cc1)C1CCN(C(=O)[C@H](CC(C)C)NC(=O)N2CCCCCC2)CC1 [Example 42, (S)-Azepane-1-carboxylic acid (1-{4-[[4-(4-hydroxy-benzylamino)-phenyl]-(3-methyl-butyl)-amino]-piperidine-1-carbonyl}-3-methyl-butyl)-amide] | 20% |  |

Second part, the compound before the results:

| SMILES | melting point | IC50 (N-type Ca2+ channel) | responders at 30 mg/kg (DBA/2 mice) | other results |
| --- | --- | --- | --- | --- |
| CC(C)=CCN(CCCNC(=O)[C@H](CC(C)C)NC(=O)N1CCCCCC1)c1ccc(OCc2ccccc2)cc1 [Example 4, (S)-Azepane-1-carboxylic acid (1-{3-[(4-benzyloxy-phenyl)-(3-methyl-but-2-enyl)-amino]-propylcarbamoyl}-3-methyl-butyl)-amide] | 48 to 52 °C | 750 nM |  |  |
| CC(C)C[C@H](NC(=O)N1CCCCCC1)C(=O)NCCN(Cc1ccccc1)c1ccc(OCc2ccccc2)cc1 [Example 7, (S)-Azepane-1-carboxylic acid (1-{2-[benzyl-(4-benzyloxy-phenyl)-amino]-ethylcarbamoyl}-3-methyl-butyl)-amide] | 65 to 66 °C | 1900 nM |  |  |
| CC(C)=CCN(c1ccc(OCc2ccccc2)cc1)C1CCN(C(=O)[C@H](CC(C)C)NCCC(C)C)CC1 [Example 25, (S)-1-{4-[(4-Benzyloxy-phenyl)-(3-methyl-but-2-enyl)-amino]-piperidin-1-yl}-4-methyl-2-(3-methyl-butylamino)-pentan-1-one] |  | 480 nM | 80% |  |
| CC(C)CC(NC(=O)N1CCCCCC1)C(=O)N1CCC(N(CCC(C)O)c2ccc(OCc3ccccc3)cc2)CC1 (centres unmarked) [Example 32, Azepane-1-carboxylic acid (1-{4-[(4-benzyloxy-phenyl)-(3-hydroxy-butyl)-amino]-piperidine-1-carbonyl}-3-methyl-butyl)-amide] |  | 4600 nM | 60% |  |
| CC(C)CCN(c1ccc(NCCC(C)(C)C)cc1)C1CCN(C(=O)[C@H](CC(C)C)NC(=O)N2CCCCCC2)CC1 [Example 36, (S)-Azepane-1-carboxylic acid (1-{4-[[4-(3,3-dimethyl-butylamino)-phenyl]-(3-methyl-butyl)-amino]-piperidine-1-carbonyl}-3-methyl-butyl)-amide] |  | 180 nM | 80% |  |
| CC(C)CCN(c1ccc(OCc2ccccc2)cc1)C1CCN(C(=O)[C@@H](N)CC(C)C)CC1 [Example 44, (S)-2-Amino-1-{4-[(4-benzyloxy-phenyl)-(3-methyl-butyl)-amino]-piperidin-1-yl}-4-methyl-pentan-1-one] |  |  |  | responders at 10 mg/kg (DBA/2 mice): 20%; inhibition at 1 µM (N-type Ca2+ channel): 50%; inhibition at 10 µM (N-type Ca2+ channel): 100% |
| CC(C)=CCN(c1ccc(OCc2ccccc2)cc1)C1CCN(C[C@@H](N)CC(C)C)CC1 [Example 47, (S)-[1-(2-Amino-4-methyl-pentyl)-piperidin-4-yl]-(4-benzyloxy-phenyl)-(3-methyl-but-2-enyl)-amine] |  |  |  | responders at 10 mg/kg (DBA/2 mice): 80%; inhibition at 1 µM (N-type Ca2+ channel): 44%; inhibition at 10 µM (N-type Ca2+ channel): 100% |
